This is an account of results in PMC7883216 (Peptides, 2021).

A short description of series [1]: Pharmacokinetics of exogenous mouse GIP. The series is classed as in vivo, female C57Bl/6Jrj mice. The note with it: for peak intact GIP concentration as % of peak total GIP concentration: in-house RIAs; for increase of iAUC of intact GIP upon co-administration of Val-Pyr: P < 0.0001; for Clearance, corrected for body weight / Apparent volume of distribution corrected for body weight: IV 25 nmol/kg BW, mean ± SE, n = 6-9; for Clearance, corrected for body weight: CL = k*Vd.

The conditions of series [2]: anaesthetized rats; cited from earlier work.
The conditions of series [3]: in humans; cited from earlier work.
Where [4] appears, read: female, C57Bl/6Jrj, mouse, plasma, iv, 25 nmol/kg BW.

Read-outs that look alike come from different tables or passages of the source.

`CC[C@H](C)[C@H](NC(=O)[C@H](CO)NC(=O)[C@H](Cc1ccc(O)cc1)NC(=O)[C@H](CC(=O)O)NC(=O)[C@H](CO)NC(=O)[C@@H](NC(=O)[C@H](Cc1ccccc1)NC(=O)[C@@H](NC(=O)CNC(=O)[C@H](CCC(=O)O)NC(=O)[C@H](C)NC(=O)[C@@H](N)Cc1ccc(O)cc1)[C@@H](C)O)[C@@H](C)CC)C(=O)N[C@@H](C)C(=O)N[C@@H](CCSC)C(=O)N[C@@H](CC(=O)O)C(=O)N[C@@H](CCCCN)C(=O)N[C@H](C(=O)N[C@@H](CCCNC(=N)N)C(=O)N[C@@H](CCC(N)=O)C(=O)N[C@@H](CCC(N)=O)C(=O)N[C@@H](CC(=O)O)C(=O)N[C@@H](Cc1ccccc1)C(=O)N[C@H](C(=O)N[C@@H](CC(N)=O)C(=O)N[C@@H](Cc1c[nH]c2ccccc12)C(=O)N[C@@H](CC(C)C)C(=O)N[C@@H](CC(C)C)C(=O)N[C@@H](C)C(=O)N[C@@H](CCC(N)=O)C(=O)N[C@@H](CCCNC(=N)N)C(=O)NCC(=O)N[C@@H](CCCCN)C(=O)N[C@@H](CCCCN)C(=O)N[C@@H](CO)C(=O)N[C@@H](CC(=O)O)C(=O)N[C@@H](Cc1c[nH]c2ccccc12)C(=O)N[C@@H](CCCCN)C(=O)N[C@@H](Cc1c[nH]cn1)C(=O)N[C@@H](CC(N)=O)C(=O)N[C@H](C(=O)N[C@H](C(=O)N[C@@H](CCC(N)=O)C(=O)O)[C@@H](C)O)[C@@H](C)CC)C(C)C)[C@@H](C)CC` [GIP(1–42)]: the “peak intact GIP concentration as % of peak total GIP concentration” value in series [1] (IP injection 25 nmol/kg BW, with Val-Pyr) is reported as 82%; in series [1] (IP injection 25 nmol/kg BW, without Val-Pyr) it was 16%; in series [1] (IV injection 25 nmol/kg BW, with Val-Pyr), 110%; in series [1] (IV injection 25 nmol/kg BW, without Val-Pyr, mean) it was 41%; in series [1] (SC injection 25 nmol/kg BW, with Val-Pyr), 82%; in series [1] (SC injection 25 nmol/kg BW, without Val-Pyr), 14%. Moreover, the “increase of iAUC of intact GIP upon co-administration of Val-Pyr” value in series [1] (IP injection 25 nmol/kg BW, Fig. 1F) worked out at 7.8 fold; in series [1] (IV injection 25 nmol/kg BW, Fig. 1B), 5.4 fold; in series [1] (SC injection 25 nmol/kg BW, Fig. 1D), 8.1 fold. The “Clearance, corrected for body weight” value turned out to be 45 ± 4 µL/min/g in series [1] (Val-Pyr co-administration) and 207 ± 16 µL/min/g in series [1] (placebo (no Val-Pyr)). For the same compound, the “Apparent volume of distribution corrected for body weight” value in series [1] (Val-Pyr co-administration) amounted to 0.46 ± 0.03 mL/g; in series [1] (placebo (no Val-Pyr), Vd = total dose/C0) it was 0.34 ± 0.1 mL/g. For the same compound, in series [1] (setting [4]), the half-life – broadly, the time in which the quantity being followed falls by half – was 1.5 min. The tissue uptake dose in series [1] (setting [4]) was determined as 13 ± 1 %ID; in series [1] (female, C57Bl/6Jrj, mouse, plasma, sc, 25 nmol/kg BW), 10 ± 1 %ID. Also, the “intact GIP levels as % of total GIP plasma concentrations” value in series [1] (following SC and IP GIP administration without DPP-4 inhibitor) is given as “approximately 15%”. The plasma half-life entry is listed as “approximately 2 min” in series [2] and “approximately 7 min” in series [3].

Consider “human GIP(1–42): human GIP(1–42), half-life in humans quoted from ref 11”, for which, in series [3], the plasma half-life result is given as “approximately 7 min”.
